Data from PubChem BioAssay AID2619 (Sanford-Burnham Center for Chemical Genomics, 2010).

Test system: MDA-MB-435 TRAIL sensitization, ATPlite luminescence, 24 h
Experiment: PubChem AID 2619

CSc1nc(-c2ccc(C)cc2)nc(C(Cl)Cl)n1
cytotoxicity with TRAIL (at 10 µM (top of the series)): 82% | cytotoxicity (compound alone without TRAIL, at 10 µM, stronger effect = higher value): 1%
